# Measurements from ChEMBL document CHEMBL1127637, “Antiplatelet agents based on cyclooxygenase inhibition without ulcerogenesis. Evaluation and synthesis of 4,5-bis(4-methoxyphenyl)-2-substituted-thiazoles” (J Med Chem, 1994).
# Key:
# Type in all cases: functional
# [1] = species: Oryctolagus cuniculus; test: In vitro antiplatelet activity against arachidonic acid induced malondialdehyde production
# [2] = tested on: Rattus norvegicus; test: Induction of acute stomach lesion at a dose of 100 mg/Kg was determined in 5 animals
# [3] = tested on: Rattus norvegicus; test: Induction of acute stomach lesion at a dose of 32 mg/Kg was determined in 5 animals
# [4] = tested on: Cavia porcellus; test: Inhibitory effect on platelet aggregation induced by Arachidonic acid (AA) in guinea pigs ex vivo at a dose of 1 mg/Kg after 6 hr of oral administration
# [5] = tested on: Cavia porcellus; test: Inhibitory effect on platelet aggregation induced by Arachidonic acid (AA) in guinea pigs ex vivo at a dose of 1 mg/Kg after 1 hr of oral administration
# [6] = tested on: Cavia porcellus; test: Inhibitory effect on platelet aggregation induced by Collagen in guinea pigs ex vivo at a dose of 1 mg/Kg after 1 hr of oral administration
# [7] = species: Rattus norvegicus; test: In vitro vasodilatory activity in isolated rat aorta; conditions: read-out: ED50 (the source's name)
# [8] = tested on: Cavia porcellus; test: Inhibitory effect on platelet aggregation induced by Collagen in guinea pigs ex vivo at a dose of 1 mg/Kg after 6 hr of oral administration
# [9] = species: Oryctolagus cuniculus; test: Inhibitory activity on the MDA production at 0.1 uM
# [10] = tested on: Cavia porcellus; test: Inhibitory effect on platelet aggregation induced by Collagen in guinea pigs ex vivo at a dose of 3.2 mg/Kg after 6 hr of oral administration
# [11] = tested on: Cavia porcellus; test: Inhibitory effect on platelet aggregation induced by Arachidonic acid (AA) in guinea pigs ex vivo at a dose of 3.2 mg/Kg after 6 hr of oral administration
# [12] = species: Oryctolagus cuniculus; test: Inhibitory activity on the MDA production at 0.01 uM
# [13] = tested on: Cavia porcellus; test: ccInhibitory effect on platelet aggregation induced by Arachidonic acid (AA) in guinea pigs ex vivo at a dose of 3.2 mg/Kg after 6 hr of oral administration
# [14] = tested on: Cavia porcellus; test: Inhibitory effect on platelet aggregation induced by Arachidonic acid (AA) in guinea pigs ex vivo at a dose of 3.2 mg/Kg after 1 hr of oral administration
# [15] = tested on: Cavia porcellus; test: Inhibitory effect on platelet aggregation induced by Collagen in guinea pigs ex vivo at a dose of 3.2 mg/Kg after 1 hr of oral administration
# [16] = species: Oryctolagus cuniculus; test: Inhibitory activity on the MDA production at 1 uM
# [17] = tested on: Rattus norvegicus; test: Compound was evaluated for collagen-induced platelet aggregation in rat ex vivo at the dose of 32 mg/Kg
# [18] = tested on: Rattus norvegicus; test: Induction of acute stomach lesion at a dose of 10 mg/Kg
# [19] = tested on: Rattus norvegicus; test: Induction of acute stomach lesion at a dose of 100 mg/Kg
# [20] = tested on: Rattus norvegicus; test: Induction of acute stomach lesion at a dose of 320 mg/Kg
# [21] = tested on: Rattus norvegicus; test: Induction of acute stomach lesion at a dose of 32 mg/Kg
# [22] = tested on: Rattus norvegicus; test: Compound was evaluated for collagen-induced platelet aggregation ex vivo in rat at the dose of 100 mg/Kg
# [23] = tested on: Cavia porcellus; test: Inhibitory effect on platelet aggregation induced by Arachidonic acid (AA) in guinea pigs ex vivo at a dose of 1 mg/kg after 6 hr of oral administration
# [24] = tested on: Cavia porcellus; test: Inhibitory effect on platelet aggregation induced by Arachidonic acid in guinea pigs ex vivo at a dose of 3.2 mg/Kg after 1 hr of oral administration
# [25] = tested on: Cavia porcellus; test: Inhibitory effect on platelet aggregation induced by Arachidonic acid (AA) in guinea pigs ex vivo at a dose of 1 mg/kg after 1 hr of oral administration
SMILES,IC50 [1] [nM],EC50 [7] [nM],other results
C/N=C(/NC)Nc1nc(-c2ccc(OC)cc2)c(-c2ccc(OC)cc2)s1,970,,
COc1ccc(-c2nc(CNC(=O)CSC)sc2-c2ccc(OC)cc2)cc1,< 100,6000,Inhibition [9]: 73.3%; inhibition in vivo at 1 mg/kg [4]: -3.9%; inhibition in vivo at 1 mg/kg [8]: -13.3%
COc1ccc(-c2nc(C3=CCN(C)CC3)sc2-c2ccc(OC)cc2)cc1,< 10,5900,inhibition in vivo at 3.2 mg/kg [10]: 69.3%; inhibition in vivo at 3.2 mg/kg [11]: 100%
COc1ccc(-c2nc(C(=O)N3CCN(C(=O)NC(C)C)CC3)sc2-c2ccc(OC)cc2)cc1,> 1000,15000,
COc1ccc(-c2nc(/C=C/C(=O)O)sc2-c2ccc(OC)cc2)cc1,> 100,55000,
CC/N=C(/N)Nc1nc(-c2ccc(OC)cc2)c(-c2ccc(OC)cc2)s1,> 100,,
COc1ccc(-c2nc(/N=C(\N)NC(C)C)sc2-c2ccc(OC)cc2)cc1,> 100,9100,
COc1ccc(-c2nc(/C=C/C(=O)N3CCN(C)CC3)sc2-c2ccc(OC)cc2)cc1,> 1000,20000,
COc1ccc(-c2nc(C(=O)NCCc3cccnc3)sc2-c2ccc(OC)cc2)cc1,< 100,20000,Inhibition [9]: 56.6%
COc1ccc(-c2nc(/N=C(\N)N3CCOCC3)sc2-c2ccc(OC)cc2)cc1,< 1000,66000,Inhibition [16]: 79.9%
CC(=O)Oc1ccccc1C(=O)O [ASPIRIN],16000,> 600000,Inhibition % [14]: 64%; Inhibition % [15]: 9%; ED50 [17]: 8.4 mg/kg; Ulcer index [18]: 0.6; Ulcer index [19]: 2.2; Ulcer index [20]: 3.8; Ulcer index [21]: 2
COc1ccc(-c2nc(C(=O)N3CCNC(CCO)C3)sc2-c2ccc(OC)cc2)cc1 (stereo unspecified),> 1000,9500,
COc1ccc(-c2nc(N=C(N)N)sc2-c2ccc(OC)cc2)cc1,31000,2000,
COc1ccc(-c2nc(C3=NNC(=O)CC3)sc2-c2ccc(OC)cc2)cc1,> 1000,,
COc1ccc(-c2nc(C(=O)NCCN3CCOCC3)sc2-c2ccc(OC)cc2)cc1,> 1000,8700,
COc1ccc(-c2nc(/N=C(\N)n3ccnc3)sc2-c2ccc(OC)cc2)cc1,> 100,,

SMILES,IC50 [1] [nM],EC50 [7] [nM],other results
COc1ccc(-c2nc(C(=O)N3CCCCC3)sc2-c2ccc(OC)cc2)cc1,> 1000,11000,
COc1ccc(-c2nc(C(=O)N3CCN(C)CC3)sc2-c2ccc(OC)cc2)cc1 [FR-122047],88,,inhibition in vivo at 3.2 mg/kg [10]: 100%; ED50 [22]: 1.4 mg/kg; inhibition in vivo at 3.2 mg/kg [11]: 100%; Ulcer index [19]: 0; inhibition in vivo at 1 mg/kg [23]: 100%; inhibition in vivo at 1 mg/kg [8]: 83.1%
CNC(=N)Nc1nc(-c2ccc(OC)cc2)c(-c2ccc(OC)cc2)s1,62,1200,Inhibition % [24]: 100%; Inhibition % [15]: 76.2%; Inhibition % [6]: 9%; Inhibition % [25]: 100%
COc1ccc(-c2nc(/N=C(\N)NC3CCCCC3)sc2-c2ccc(OC)cc2)cc1,> 1000,> 100000,
COc1ccc(-c2nc(C(N)=O)sc2-c2ccc(OC)cc2)cc1,> 1000,,
COc1ccc(-c2nc(CN)sc2-c2ccc(OC)cc2)cc1,> 100,7700,
COc1ccc(-c2nc(CNC(=O)CSc3ccccc3)sc2-c2ccc(OC)cc2)cc1,< 100,4200,Inhibition [9]: 73.6%; inhibition in vivo at 1 mg/kg [4]: 16.5%; inhibition in vivo at 1 mg/kg [8]: -2.6%
CCOC(=O)C1=C(C)N=C(C)/C(=C(/O)OCC)C1c1nc(-c2ccc(OC)cc2)c(-c2ccc(OC)cc2)s1 (stereo unspecified),< 100,> 32000,
COc1ccc(-c2nc(C(=O)N3CCCN(C)CC3)sc2-c2ccc(OC)cc2)cc1,> 100,4300,
COc1ccc(-c2nc(CN(C)C)sc2-c2ccc(OC)cc2)cc1,96,8400,Inhibition % [14]: 100%; Inhibition % [15]: 100%; Inhibition % [10]: 0%; Inhibition % [11]: 0%
COc1ccc(-c2nc(C(=O)N(C)C)sc2-c2ccc(OC)cc2)cc1,< 100,,inhibition in vivo at 3.2 mg/kg [10]: 4.1%; Inhibition [9]: 51.4%; inhibition in vivo at 3.2 mg/kg [11]: 89%
CCOC(=O)CC(c1nc(-c2ccc(OC)cc2)c(-c2ccc(OC)cc2)s1)N1CCN(C)CC1 (stereo unspecified),> 1000,2600,
COc1ccc(-c2nc(C(=O)N=C(N)N)sc2-c2ccc(OC)cc2)cc1,> 100,> 100000,
COc1ccc(-c2nc(CNC(=O)N3CCOCC3)sc2-c2ccc(OC)cc2)cc1,660,12000,
COc1ccc(-c2nc(CCC(=O)O)sc2-c2ccc(OC)cc2)cc1,< 100,> 100000,

# Now from value to compound, other results behind:
IC50 [1] [nM],EC50 [7] [nM],SMILES,other results
5.6,> 300000,COc1ccc(-c2nc(C(F)(F)F)sc2-c2ccc(OC)cc2)cc1 [ITAZIGREL],Ulcer index [2]: 1.4; Ulcer index [3]: 0.4; Inhibition % [4]: 100%; Inhibition % [5]: 100%; Inhibition % [6]: 100%; Inhibition % [8]: 79%
< 10,14000,CCN(CC)C(=O)c1nc(-c2ccc(OC)cc2)c(-c2ccc(OC)cc2)s1,Inhibition [12]: 65%
39,5200,COc1ccc(-c2nc(N3CCN(C)CC3)sc2-c2ccc(OC)cc2)cc1,inhibition in vivo at 1 mg/kg [4]: 60.9%; inhibition in vivo at 1 mg/kg [8]: 65.4%
42,5700,COc1ccc(-c2nc(CNC(=O)NC(C)C)sc2-c2ccc(OC)cc2)cc1,inhibition in vivo at 3.2 mg/kg [10]: 100%; inhibition in vivo at 1 mg/kg [4]: 100%; inhibition in vivo at 3.2 mg/kg [13]: 100%; inhibition in vivo at 1 mg/kg [8]: 100%
37,,COc1ccc(-c2nc(/N=C(\N)N(C)C)sc2-c2ccc(OC)cc2)cc1,Inhibition % [14]: 100%; Inhibition % [15]: 100%; Inhibition % [10]: 98%; Inhibition % [11]: 100%; Inhibition % [5]: 48.5%; Inhibition % [6]: 33.1%
20,> 100000,CCOC(=O)/C=C/c1nc(-c2ccc(OC)cc2)c(-c2ccc(OC)cc2)s1,
31,2500,Cc1cc(/N=C(\Nc2nccs2)NC2CCCCC2)c2ccccc2n1 [TIMEGADINE],Inhibition % [14]: 52.4%; Inhibition % [5]: 14.5%
55,,COc1ccc(-c2nc(CNC(=O)C3=NNC(=O)CC3)sc2-c2ccc(OC)cc2)cc1,inhibition in vivo at 3.2 mg/kg [10]: 94.1%; inhibition in vivo at 3.2 mg/kg [11]: 100%; inhibition in vivo at 1 mg/kg [4]: 100%; inhibition in vivo at 1 mg/kg [8]: 84.3%
< 10,> 100000,CCOC(=O)/C(C#N)=C/c1nc(-c2ccc(OC)cc2)c(-c2ccc(OC)cc2)s1,
< 10,< 100000,COc1ccc(-c2nc(C(=O)N3CCOCC3)sc2-c2ccc(OC)cc2)cc1,Inhibition [12]: 74.8%
15,8100,COc1ccc(-c2nc(CNC(C)=O)sc2-c2ccc(OC)cc2)cc1,Inhibition % [4]: 60.9%; Inhibition % [8]: 26.6%
25,,COc1ccc(-c2nc(CNC(=O)c3cccnc3)sc2-c2ccc(OC)cc2)cc1,Inhibition % [10]: 37.4%; Inhibition % [11]: 40.3%
45,6800,COc1ccc(-c2nc(C(=O)N3CCCCC3CCO)sc2-c2ccc(OC)cc2)cc1 (stereo unspecified),Inhibition % [10]: 100%; Inhibition % [11]: 100%
22,15000,CNC(=O)NCc1nc(-c2ccc(OC)cc2)c(-c2ccc(OC)cc2)s1,
